From US20260218126A1, “METHOD FOR PRODUCING RETINAL TISSUE” (RACTHERA CO., LTD., priority 2023, published 2026)

Columns and labels:
Format in all cases: cell-based
KhES-1_Rx::Venus cells = experiment: Retinal differentiation induction with or without LDN-193189 addition (GFP and Chx10 expression)
Experimental: • 1. KhES-1_Rx::Venus cells (KhES-1 cells obtained by knocking a GFP variant called Venus in the locus of a retinal marker Rx) that reached optimal confluence were collected by removing the medium and washed twice with 1 mL of PBS (−). • 2. The cells were incubated at 37° C. and 5% CO2 with 0.5×TrypLE™ Select added at 500 μL/well. • 3. After the 0.5×TrypLE™ Select was removed, PBS (−) was added to the well at 2 mL/well and the cells were peeled off by spraying PBS (−). • 4. The cells were collected into a 15 mL Falcon tube and the cell number was counted. • 5. The required number of cells (5×10^5 cells per dish) was transferred to another tube and centrifuged at 1000 rpm at 20° C. for 5 minutes. • 6. After the supernatant was removed, the cells were suspended with AK02N+Y to provide a cell suspension of 5×10^5 cells/200 μL AK02N+Y. • 7. The iMatrix coating solution within the PDMS sheet was removed with an aspirator and the cell suspension (5×10^5 cells/200 μL AK02N+Y) was added to the circle and incubated at 37° C. for 30 minutes. • 8. The PDMS sheet was removed from the dish with sterilized tweezers. • 9. The cells was cultured at 37° C. and 5% CO2 with 300 μL of AK02 N+Y added to the dish. <Day 1: Medium Replacement with AK02+PS> • 1. The whole medium was replaced with 1 mL of gfCDM (10% KSR) containing LDN-193189 (04-0074-02, ReproCELL Inc.) (hereinafter referred to as LDN). (final concentration of 100 nM LDN). […] Expressions of Chx10, Recoverin, FOXG1, Crx, Tuj1, Zo-1, and Pax6 were evaluated by immunostaining with primary antibodies specific for the respective markers and secondary antibodies suitable for the primary antibodies. The effect of LDN-193189, a BMP signaling inhibitor, on the differentiation induction was evaluated. […] Also, expressions of GFP and Chx10 at Day 18 were evaluated in the patterned and non-patterned cells with or without the LDN-193189 addition. The Chx10 expression was assessed by quantitative PCR (using HPRT1 as an endogenous control) and immunostaining.

[1] = system: human iPS cells (LPF11 line); experiment: Duration of action of Y-27632 at cell seeding in patterning culture (LPF11 line); conditions: for percentage of Chx10-positive areas on the sheet surface: ImageJ
Experimental: The percentage of area covered by a retinal tissue on the region A may be measured by any methods, and for example, can be measured by staining the retinal tissue. For example, it is measured by staining expression of the retinal cell marker described above (such as Chx10) (e.g., by immunostaining with a fluorescently labeled anti-Chx10 antibody). Then, by using imaging software such as ImageJ software (NIH), the ratio of the area of the retinal cell marker-positive region to the area of the region A can be calculated.
(§1) For patterning, a droplet (1 cm in diameter) of a solution containing 0.785 μl of Laminin511-E8 (Nippi. Inc.) in 100 μl of PBS (Laminin51l-E8 concentration of 3.925 ng/μl) was made in the center of the wells of a 12-well plate (Iwaki, for cell culture, culture area 3.8 cm^2) and then incubated at 37° C. or room temperature for 1 to 3 hours to prepare 12-well-plates for patterning culture (Laminin511-E8: 0.5 μg/cm^2).
(§2) First, a 12-well plate for patterning culture prepared by the method described in Example 1 was provided, and subconfluent human iPS cells (LPF11 and DSP-SQ lines) were washed with PBS and dispersed into single cells using TrypLE Select (Life Technologies). The human iPS cells dispersed into single cells were then seeded into one well of the patterning culture plate at a density of 2.0×10^5 cells/cm^2 and cultured under feeder-free condition in Stemfit medium in the presence of Y-27632 (ROCK inhibitor, 10 μM). Then, after 2, 4, 8, 16, or 32 hours culture, the medium was replaced with 2 ml of StemFit medium without Y-27632.
(§3) The patterning culture was then performed as described in Example 1, and on Day 20 of seeding, cells were fixed with 4% paraformaldehyde and bright-field images were obtained with a fluorescence microscope (Keyence). […] The percentage of Chx10-positive areas on the sheet surface was calculated using ImageJ software (NIH) and was 91% for sheets with Y-27632 for 32 hours, compared to 97% or more for sheets with Y-27632 for 16 hours or less (16 hours: 97%, 8 hours: 99%, 4 hours: 98%, 2 hours: 99%).

[2] = system: human iPS cells (DSP-SQ line); experiment: Duration of action of Y-27632 at cell seeding in patterning culture (DSP-SQ line); conditions: shortening the duration of action of Y-27632; Day 20; immunostaining
Experimental: as §1
First, a 12-well plate for patterning culture prepared by the method described in Example 1 was provided, and subconfluent human iPS cells (LPF11 and DSP-SQ lines) were washed with PBS and dispersed into single cells using TrypLE Select (Life Technologies). […]
as §3

[3] = system: human iPS cells (LPF11 line); experiment: BMP4 concentration for retinal differentiation by patterning culture (Rx immunostaining, real-time PCR); conditions: Day 20
Experimental: as §2, with “line)” for “and DSP-SQ lines)”, “Two” for “Then, after 2, 4, 8, 16, or 32”, “later,” for “culture,”, “Y-27632 and patterning culture was performed as described in Example 1.” for “Y-27632.”
On Day 7 of patterning culture, the medium was replaced with serum-free medium (gfCDM+KSR) containing exogenous human recombinant BMP4 (R&D) at a final concentration of 0, 1.5, 3, 6, or 12 nM. Thereafter, half of the medium was replaced with serum-free medium (gfCDM+KSR) without human recombinant BMP4 every 2 to 3 days. […]
Total RNA was then extracted from the retinal tissue using a spin column (QIAGEN, RNeasy Micro kit) by the method described in the kit. The concentration of total RNA was measured by a measuring device (Nanodrop, Thermo scientific) and then reverse transcribed into cDNA using reverse transcriptase and primers (Reverse Transcription Master Mix Kit, Fluidigm). […] The Pre-Run reaction solutions were then injected into a flow-through multi-well (96. 96 Dynamic Array IFC, Fluidigm) using an IFC Controller HX (Fluidigm), and the expression levels of marker genes for neural retina and for by-products other than neural retina were determined by real-time PCR using a multi-sample real-time PCR system (Biomark HD, Fluidigm).
Specifically, the ΔCt value was calculated from the difference between the Ct value of the target gene and the Ct value of GAPDH, the gene used as the internal standard, and the ratio of expression level of each gene was calculated from the difference in ΔCt between samples (ΔΔCt).

c1ccc2c(-c3cnn4cc(-c5ccc(N6CCNCC6)cc5)cnc34)ccnc2c1 [LDN-193189, 4-[6-(4-Piperazin-1-ylphenyl)pyrazolo[1,5-a]pyrimidin-3-yl]quinoline]
GFP expression (KhES-1_Rx::Venus cells; Day 11, patterning culture, LDN-193189 100 nM from Day 3 to Day 8, compared to cells without LDN-193189): uniform GFP expression | Chx10 expression (KhES-1_Rx::Venus cells; Day 18, without patterning culture, quantitative PCR (HPRT1 control) and immunostaining, with vs without LDN-193189 addition): increased | GFP expression (KhES-1_Rx::Venus cells; Day 18, without patterning culture, with vs without LDN-193189 addition): increased

C[C@@H](N)[C@H]1CC[C@H](C(=O)Nc2ccncc2)CC1 [Y-27632]
survival of human iPS cells after removing Y-27632 ([1]; Y-27632 10 μM for 2, 4, 8, 16 or 32 hours, LPF11 and DSP-SQ lines): survived | percentage of Chx10-positive areas on the sheet surface ([1]; Y-27632 10 μM for 2 hours, Day 20): 99% | percentage of Chx10-positive areas on the sheet surface ([1]; Y-27632 10 μM for 4 hours, Day 20): 98% | percentage of Chx10-positive areas on the sheet surface ([1]; Y-27632 10 μM for 8 hours, Day 20): 99% | percentage of Chx10-positive areas on the sheet surface ([1]; Y-27632 10 μM for 16 hours or less, Day 20): ≥ 97% | percentage of Chx10-positive areas on the sheet surface ([1]; Y-27632 10 μM for 16 hours, Day 20): 97% | percentage of Chx10-positive areas on the sheet surface ([1]; Y-27632 10 μM for 32 hours, Day 20): 91% | holes on the cell sheet surface ([1]; longer duration of action of Y-27632 (2 to 32 hours), Day 20, bright-field): the more holes were created | Chx10-negative areas on the sheet surface [2]: fewer Chx10-negative areas

B1: BMP4: human recombinant BMP4 (R&D), BMP signaling activator (protein, UniProt P12644 293-408, looked up)
Bone morphogenetic protein 4: SPKHHSQRARKKNKNCRRHSLYVDFSDVGWNDWIVAPPGYQAFYCHGDCPFPLADHLNSTNHAIVQTLVNSVNSSIPKACCVPTELSAISMLYLDEYDKVVLKNYQEMVVEGCGCR
expression of retinal progenitor cell marker Rx (immunostaining) ([3]; BMP4 3 to 12 nM compared to 1.5 nM): more strongly expressed | expression of retinal progenitor cell marker genes Chx10 and Rx (relative mRNA, real-time PCR) ([3]; BMP4 3 to 12 nM compared to 1.5 nM, GAPDH internal standard): higher expression | expression of Emx2, marker gene for unintended cells (relative mRNA, real-time PCR) ([3]; BMP4 3 to 12 nM): low and suppressed expression
